Source: PMC10384675, “Novel Thiazolidine-2,4-dione-trimethoxybenzene-thiazole Hybrids as Human Topoisomerases Inhibitors” (Pharmaceuticals, 2023)

How the values were obtained:
MCF-7 cells = assay: Mitochondria and cytochrome c immunostaining; format: cell-based, human; settings: at IC50 value, 24 h
Excerpt: In order to establish whether the observed cell death could be ascribed to the induction of the apoptotic pathway, we performed immunostaining assays using an anti-cytochrome c (cyt c) antibody and the mitochondrial probe MitoTracker Deep Red FM, which would allow us to verify whether cyt c was released from mitochondria to the cell cytoplasm or not. In Figure 6, panels B,C, it is possible to visualize the intracellular localization of cyt c (green fluorescence) and mitochondria (red fluorescence). […] Indeed, as visible in the overlay channel (panel D), the two fluorescence signals (red and green) were no longer superimposable.
Cells grown on glass coverslips in full medium were serum-deprived for 24 h, then the compound (or only vehicle) was added (24 h, 7e at its IC50 value). Next, cells were incubated with a staining solution containing MitoTracker® Deep Red FM probe (MitoTracker® Mitochondrion-Selective Probes, Invitrogen European Headquarters, Paisley PA4 9RF, UK; fluorescence excitation = 644, fluorescence emission = 665) for 20 min, at 37 °C. After a PBS wash, cells were fixed (cold methanol, 15 min at −20 °C) and incubated with the mouse anti-cytochrome c (556 433) primary antibody, purchased from BD, diluted in the blocking solution (4 °C/overnight), as described in [60]. […]

[1] = tested on: MCF-7 breast cancer cells; assay: MTT cell viability assay, MCF-7; format: cell-based, human
Description: All of the synthesized compounds (7a–f) were studied to test their anticancer activity toward the estrogen receptor-positive (ER+) MCF-7 and the triple-negative MDA-MB-231 breast cancer cells (ER-, PR- and HER-2/Neu not overexpressed) and A2058 melanoma cells. Cells were incubated for 72 h with different concentrations of the compounds, and then the viability was checked by the MTT assay. […] Moreover, we checked the cytotoxicity of all of the synthesized compounds against the human MCF-10A non-malignant breast epithelial cells and mouse BALB/3T3 embryonic fibroblasts, in order to evaluate their selectivity on cancer cells.
The used cell lines (breast cancer cell lines MCF-7 and MDA-MB-231, melanoma cell line A2058 and human mammary epithelial cell line MCF-10A) were obtained from American Type Culture Collection (ATCC, Manassas, VA, USA) and cultured as already reported. The mouse BALB/3T3 embryonic fibroblasts were also purchased from American Type Culture Collection (ATCC, Manassas, VA, USA) and cultured in DMEM high glucose supplemented with 10% bovine calf serum (BCS) and 100 U mL^−1 penicillin/streptomycin.
MTT assay (Sigma Aldrich (St. Louis, MO, USA)) was performed for evaluating the in vitro anticancer activities of the compounds, as previously indicated. Different concentrations (0.1, 1, 10, 25, 50, and 100 μM) of the compounds were employed, with a 72 h endpoint. IC50 values were obtained from the percent (%) of control using GraphPad Prism 9 (GraphPad Software, La Jolla, CA, USA).

IC50 ([1]; Homo sapiens, MCF7, MTT, 72 h): 3.1 ± 0.6 µM
SMILES: COc1cc(/C=C2\SC(=O)N(CC(=O)Nc3nc(-c4ccc(Br)cc4)cs3)C2=O)cc(OC)c1OC [compound 7e, (Z)-2-(5-(3,4,5-Trimethoxybenzylidene)thiazolidin-2,4-dion-3-yl)-N-(4-(4-bromophenyl)thiazol-2-yl)acetamide]
cytochrome c release from mitochondria into the cytoplasm (MCF-7 cells): cyt c was released into the cell cytoplasm
fold more active against MCF-7 than against mouse BALB/3T3 embryonic fibroblasts ([1]; MCF-7 vs BALB/3T3 IC50): about 11 fold
